Converted amounts (≈) assume the structure as drawn. “Also recorded” adds a separate entry of the source. Where two headings read alike, the source gives them in different places.
Experiments:
zebrafish embryo = conditions: cited from earlier work
[1] = Zebrafish embryo test after microinjection of gfp, adh8a, adh8b or adh8a/b mRNA; type: in vivo, zebrafish (Danio rerio); conditions: OBI, zebrafish, in vivo, other: static waterborne exposure in exposure medium, exposure 8-56 h, with chorion, crystallization dish, strain OBI
Experimental: (§1) The zebrafish embryo test was performed with few modifications according to a standard operation procedure and a static exposure setup without renewal of exposure solutions (ISO 15088, 2006). The following chemicals were used: Allyl alcohol (CAS 107-18-6, purity 99.8%, Sigma-Aldrich, Deisenhofen, Germany), acrolein (CAS 107-02-8, purity ≥99.0%, Sigma-Aldrich, Deisenhofen, Germany), 4-Nitrophenol (CAS 100-02-7, PESTANAL, analytical standard, Sigma-Aldrich, Deisenhofen, Germany), and ethanol (CAS 64-17-5, purity ≥ 99.5%, Carl Roth, Germany). Stock solutions were prepared for each experiment by adding the appropriate amount for the highest test concentration to the exposure media (294.0 mg/L CaCl2*2H2O, 123.3 mg/L MgSO4*7H2O, 64.7 mg/L NaHCO3, 5.7 mg/L KCl). The solutions were prepared one day before the experiment in 100 ml closed graduated flasks and were stirred over night for approximately 14 h. Lower concentrations were obtained by serial dilutions. Fertilized eggs (embryos at 4–32 cell stage) were transferred by a pipette to 24-well plates (1 embryo per well, 10 wells per exposure concentration, Cellstar Greiner Bio-One, Frickenhausen, Germany) or crystallization glass dishes (80 mm diameter, 10–20 embryos per vial and 30 ml of exposure medium), respectively. Exposures were performed in independent triplicates on different days for 48 h from 2-50 hpf (hours post fertilization), 24–72 hpf, and 72–120 hpf. For the 24–72 hpf exposure, part of the embryos were manually dechorionated using forceps. […] At either 2, 8, 24 or 72 hpf the medium was completely removed and replaced by exposure media containing different concentrations of allyl alcohol (2 ml per well or 30 ml per crystallization dish, respectively). The Henry's law coefficients of the test chemicals (allyl alcohol: 4.99*10^−6, ethanol: 5.62*10^−6, 4-nitrophenol: 4.15*10^−10, acrolein: 1.22*10^−4; atm*m^3/mol) indicate a weak volatility for ethanol, allyl alcohol and acrolein. Therefore, in order to reduce potential evaporation, 24-well plates were covered with an adhesive foil; crystallization dishes were covered with a household plastic wrap and watch glasses. For comparison of the LC50 at different stages and the effect of dechorionation, exposure was performed in 24-well plates. For gene expression analysis and microinjection experiments crystallization dishes were used for exposure.
(§2) After 48 h of exposure referring to 50, 72 or 120 hpf stages, the number of dead embryos was counted. Dead embryos were detected according to the criteria given in the ISO standard; i.e., either coagulation, missing heartbeat, failure to develop somites or a lack of detachment of the tail-bud from the yolk sac were considered as indicators of lethality.
(§3) Injection needles were pulled from borosilicate glass capillary tubes with filament (GC100F-10; Warner Instruments, LLC, Hamden, CT) using a Narishige micropipette puller (Tokyo, Japan). Embryos were injected with the Eppendorf FemtoJet (Hamburg, Germany) through the chorion into the yolk compartment at the one-cell stage.
(§4) Plasmids with either the cDNA sequence of adh8a or adh8b were purchased from ImaGenes (Berlin, Germany, clone numbers IRBOp991G0334D for adh8a and IRBOp991F02101D for adh8b). The GFP open reading frame was cloned into the pCS2p+ Vector. For synthesis of capped mRNAs, adh8 plasmids were cut with XhoI and pCS2P+GFP was cut with KpnI. 5′ capped mRNA was synthesized with the mMessage Machine SP6 Kit (Life Technologies/Ambion, Darmstadt, Germany) according to the manufacturer's instructions. Injected mRNA concentration was 20–50 ng/µl. Phenol red was added to the RNA samples before injection (0.1% final concentration) in order to allow tracking of successful injections.
(§5) The LC50 values ± asymmetric 95% confidence intervals were calculated using the software JMP (SAS, Cary, NC) using the Hill-slope equation for modeling of concentration-response curves: [drawing 1] […]

[2] = test system: gfp, adh8a, adh8b mRNA injected zebrafish embryos; assay: as above; type: in vivo, zebrafish (Danio rerio); conditions: for increase in acute toxicity in response to injection of adh8 mRNA: gfp, adh8a, adh8b, adh8a/b mRNA injected embryos
Experimental: as §1, §2, §3, §4, §5

[3] = source not given; cited from earlier work
fathead minnow = conditions: cited from earlier work; for LC50: fathead minnow ref 27
[4] = Quantification of internal allyl alcohol concentration in mRNA-injected embryos by HS-GC-MS; type: in vivo, zebrafish (Danio rerio)
Experimental: 50 injected embryos were exposed from 8 hpf to 26 hpf with 0.5 or 1 mg/L allyl alcohol. At 26 hpf embryos were manually dechorionated using forceps and transferred into fresh 20 ml glass vials. The exposure medium was removed and embryos were rinsed twice with 2 ml ISO water for 30 sec, transferred into GC-MS headspace vials (Agilent Technologies, Böblingen, Germany). After removal of remaining fluid by using a microliter pipette the vials were closed and embryos were frozen at −20°C for 10 min. Subsequently, embryos were homogenized by 5 min sonication in an ultrasonic bath (Sonorex RK 512 H; Bandelin Electronic, 35 kHz). Chemical analyses were performed immediately after sonication using an Agilent 7890A gas chromatograph with headspace sampler G1888 (Agilent Technologies, Böblingen, Germany). The headspace oven temperature for equilibration of samples was set to 48°C for 10 min. The compound separation was performed using a capillary column (60 m×0.25 i.d.) with a nonpolar stationary phase HP1 (thickness 1.00 µm). Ultra high purity helium was used as carrier gas. Mass spectra were derived with Agilent 5975C inert XL MSD and Triple Axis Detector (Agilent Technologies,) in electron impact ionization mode 70eV. The detector conditions were: ion source temperature 230°C and quadrupole temperature 150°C. The column oven temperature program involved an initial temperature of 45°C for 1 min, an increase at 15°C/min to 150°C (held for 2 min), then an increase at 65°C/min to 250°C (held 0.5 min). The mass spectrometer was operated in selected ion monitoring (SIM) mode for calibration and analyte quantification in samples.
For the allyl alcohol calibration the following concentrations were used: 8.5; 42.5; 85; 425; 850 and 1700 µg/L. 5 µl of the respected concentration were transferred into a headspace vial and directly used for HS-GC-MS analysis. The calibration curve was generated based on peak areas. Exposure concentrations were determined for each replicate at the start of the exposure.

zebrafish embryos = assay: Zebrafish embryo test (acute lethality, 48 h static exposure), non-injected embryos; type: in vivo, zebrafish (Danio rerio)
Experimental: as §1, §2
The LC50 values ± asymmetric 95% confidence intervals were calculated using the software JMP (SAS, Cary, NC) using the Hill-slope equation for modeling of concentration-response curves: [drawing 1]
Min and Max were set to 0 and 100%, respectively. x and y represented the nominal exposure concentration and the survival rate (percentage).

[5] = test system: adh8a mRNA injected zebrafish embryos; assay: Time-lapse recording of adh8a mRNA injected embryos exposed to allyl alcohol; type: in vivo; conditions: 5 mg/L allyl alcohol, 24-wells
Experimental: For time lapse recording of zebrafish embryos were performed using a Leica DMI4000 B inverted microscope (Leica, Wetzlar, Germany), equipped with a digital camera (DFC 350FX; Leica) and 5× objective (HCX PL FLUOTAR, 5.0×0.15 DRY). adh8a mRNA injected were exposed to 5mg/L allyl alcohol in 24-well plates (2 embryos per 2 ml). A constant temperature of 26°C was maintained with a heated stage insert. Embryos were imaged by bright filed every 20 min for 20 h. Images were analyzed using LAS AF software (Leica, Wetzlar, Germany). Video was exported using 3 frames per second.

adult zebrafish = test system: adult zebrafish; parameters: method as in PMID 22835061; conditions: adult zebrafish ref 18; cited from earlier work
[6] = parameters: method as in PMID 22835061; conditions: cited from earlier work; for measured concentration as % of nominal concentration: 24-well plates ref 18
[7] = adh8a mRNA injected, exposure 8-56 h, with chorion, crystallization dish, strain OBI
[8] = adh8b mRNA injected, exposure 8-56 h, with chorion, crystallization dish, strain OBI
[9] = gfp mRNA injected, exposure 8-56 h, with chorion, crystallization dish, strain OBI

For `O=[N+]([O-])c1ccc(O)cc1` [4-Nitrophenol], the LC50 (zebrafish embryo; zebrafish embryo ref unpublished data) is listed as 12.0 µg/mL (≈ 86.3 µM), the LC50 ([1]; adh8a mRNA injected) is listed as 9.65 µg/mL (≈ 69.4 µM) and the LC50 ([1]; adh8a/b mRNA (1:1) injected) is listed as 10.2 µg/mL (≈ 73.4 µM). The LC50 ([1]; adh8b mRNA injected) was 9.79 µg/mL (≈ 70.4 µM), the LC50 ([1]; gfp mRNA injected) was 9.45 µg/mL (≈ 67.9 µM) and the “increase in acute toxicity in response to injection of adh8 mRNA” value [2] was “did not detect any increase”. The “Henry's law coefficient” value [3] was 4.15*10^−10 atm*m^3/mol and the LC50 (fathead minnow) was 44.8 µg/mL (≈ 322 µM).

For `CC=O` [acetaldehyde], the “fold higher toxicity compared to the parent compound ethanol” value (zebrafish embryo; zebrafish embryo ref 25) is listed as roughly 720 fold and the “fold higher toxicity compared to the parent compound ethanol” value (fathead minnow; adult fish ref 27) is listed as “about 435 fold”.

For `C=CC=O` [acrolein], the “Henry's law coefficient” value [3] is listed as 1.22*10^−4 atm*m^3/mol, the “acrolein detection in GC/MS chromatograms” value ([4]; adh8a injected embryos exposed to allyl alcohol) is listed as “could not detect acrolein” and the LC50 (zebrafish embryos; exposure 2-50 hpf, with chorion, no mRNA injected, 24-well plates, strain OBI, n = 1) is listed as 0.42 µg/mL. The “fold lower LC50 of acrolein compared with allyl alcohol” value (zebrafish embryos; zebrafish embryos, 2-50 hpf) was roughly 1000 fold.

For `C=CCO` [allyl alcohol, Allyl alcohol], the LC50 ([2]; adh8a mRNA injected embryos, read-out: LC50) was 0.0134 mM, the LC50 [2, 7] was 0.78 µg/mL and the LC50 ([2]; adh8a/b mRNA (1:1) injected, exposure 8-56 h, with chorion, crystallization dish, strain OBI) was 2.11 µg/mL. For the same compound, the LC50 [2, 8] was 166 µg/mL, the “fold reduction of LC50 by adh8b mRNA injection” value ([2]; adh8b mRNA injections) was 2.5 fold and the “fold reduction of LC50 by adh8a mRNA injection” value ([2]; compared to gfp-injected or non-injected embryos) was “more than 500 fold”. The LC50 [2, 9] was 436 µg/mL, the “Henry's law coefficient” value [3] was 4.99*10^−6 atm*m^3/mol and the “time to coagulation of the embryos” value [5] was 3 to 9 h. For the same compound, the “LC50 (adult fish)” value (adult zebrafish) was 0.28 µg/mL (≈ 4.82 µM), the “allyl alcohol detection in embryos by GC-MS” value ([4]; adh8a mRNA injected embryos) was “no allyl alcohol was found; also recorded: below the limit of detection” and the “internal allyl alcohol concentration” value ([4]; adh8a mRNA injected, 0.5 mg/L nominal, 8-26 hpf, Repl. 1-3, n.d. = not detectable) was 0 pg/embryo. The “internal allyl alcohol level (below the limit of detection)” value ([4]; adh8a-injected embryos) was less than 4.6 µg/L, the “internal allyl alcohol concentration (range)” value ([4]; before decline in adh8a-injected embryos) was 0.23-58 ng/embryo and the “measured concentration as % of nominal concentration” value ([6]; 0 h) was “about 80%”. The “geometric mean of measured concentrations as % of nominal concentration” value ([6]; 24-well plates, 48 h ref 18) was 47%, the “measured concentration as % of nominal concentration” value ([6]; within 48 h of exposure) was “about 28%” and the “fold lower LC50 for exposure from 72-120 hpf compared with earlier stages” value (zebrafish embryos; 72-120 hpf vs earlier exposure periods) was 3 fold. For the same compound, the “sublethal malformations in exposed embryos” value (zebrafish embryos; 48 h exposures) was “No sublethal malformations were observed”, the LC50 (zebrafish embryos; exposure 2-50 hpf, non-injected, read-out: LC50) was 8.2 mM and the LC50 (zebrafish embryos; exposure 2-50 hpf, with chorion, no mRNA injected, 24-well plates, strain WIK) was 478 µg/mL. For the same compound, the LC50 (zebrafish embryos; exposure 8-56 h, with chorion, non-injected control, crystallization dish, strain OBI) was 328 µg/mL, the LC50 (zebrafish embryos; exposure 24-72 hpf, with chorion (value paired with 451 mg/L), read-out: LC50) was 7.7 mM and the LC50 (zebrafish embryos; exposure 24-72 hpf, with chorion, no mRNA injected, 24-well plates, strain WIK) was 451 µg/mL. It also gave an LC50 (zebrafish embryos; exposure 24-72 hpf, without chorion (manually removed), no mRNA injected, 24-well plates, strain WIK) of 492 µg/mL, an LC50 (zebrafish embryos; exposure 24-72 hpf, without chorion (value paired with 492 mg/L), read-out: LC50) of 8.5 mM and an LC50 (zebrafish embryos; exposure 72-120 hpf, hatched, no mRNA injected, 24-well plates, strain WIK) of 157 µg/mL. For the same compound, the LC50 (zebrafish embryos; exposure 72-120 hpf, hatched, no mRNA injected, 24-well plates, strain WIK, listed as Allyl alcohol) was 159 µg/mL, the LC50 (zebrafish embryos; exposure 72-120 hpf, read-out: LC50) was 2.7 mM and the “time to coagulation of the embryos” value (zebrafish embryos; toxic concentration) was no more than 24 h. The “fold higher toxic concentrations (lower toxicity) in embryos compared to adult fish” value (zebrafish embryos; zebrafish embryos vs adult fish) was “about 1000 fold” and the “toxicity level (LC50) in adult fish” value (fathead minnow; fathead minnow ref 19) was 0.32 µg/mL.

With `CCO` [ethanol] the LC50 [2, 7] was 18570 µg/mL, the LC50 ([2]; adh8a/b mRNA injected, exposure 8-56 h, with chorion, crystallization dish, strain OBI) was 17780 µg/mL and the LC50 [2, 8] was 16310 µg/mL. For the same compound, the LC50 [2, 9] was 19170 µg/mL, the “increase in acute toxicity in response to injection of adh8 mRNA” value [2] was “did not detect any increase” and the “Henry's law coefficient” value [3] was 5.62*10^−6 atm*m^3/mol. The LC50 (fathead minnow; adult fish) was 14700 µg/mL (≈ 319000 µM).
